Results: the supplement of paper PMC10307832

Experiments:
Experiment in all cases: relative viability (nuclei count vs DMSO), 5 days (fraction); higher = more cells survive
NCI-H23 = test system: NCI-H23
Procedure, shortened: (§1)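 Relative viability divides the nuclei count in treated wells by that in vehicle wells. Lung cancer cell lines were seeded in 1536-well plates, dosed by pin tool the next day, and fixed and stained after 5 days in one step with final 0.05% Triton X-100, 1% formaldehyde and 1 ug/ml Hoechst. Dosing was a single drug or a fixed anchor-drug dose plus five library-drug doses (not always all listed) in √10 steps, and values are medians of duplicate plates imaged at 4×.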

HARA = test system: HARA
Procedure, shortened: as §1

NCI-H2009 = test system: NCI-H2009
Procedure, shortened: as §1

LC-2-ad = test system: LC-2-ad
Procedure, shortened: as §1

NCI-H1651 = test system: NCI-H1651
Procedure, shortened: as §1

NCI-H1650 = test system: NCI-H1650
Procedure, shortened: as §1

EPLC-272H = test system: EPLC-272H
Procedure, shortened: as §1

NCI-H2085 = test system: NCI-H2085
Procedure, shortened: as §1

NCI-H2228 = test system: NCI-H2228
Procedure, shortened: as §1

NCI-H1975 = test system: NCI-H1975
Procedure, shortened: as §1

NCI-H727 = test system: NCI-H727
Procedure, shortened: as §1

LOU-NH91 = test system: LOU-NH91
Procedure, shortened: as §1

PC-3 [JPC-3] = test system: PC-3 [JPC-3]
Procedure, shortened: as §1

UMC-11 = test system: UMC-11
Procedure, shortened: as §1

NCI-H441 = test system: NCI-H441
Procedure, shortened: as §1

NCI-H2023 = test system: NCI-H2023
Procedure, shortened: as §1

NCI-H838 = test system: NCI-H838
Procedure, shortened: as §1

NCI-H650 = test system: NCI-H650
Procedure, shortened: as §1

NCI-H2087 = test system: NCI-H2087
Procedure, shortened: as §1

SW 1573 = test system: SW 1573
Procedure, shortened: as §1

H3255 = test system: H3255
Procedure, shortened: as §1

Compound `Cc1cn(-c2cc(NC(=O)c3ccc(C)c(Nc4nccc(-c5cccnc5)n4)c3)cc(C(F)(F)F)c2)cn1` [Nilotinib] + CC(C)C[C@H](NC(=O)[C@H](Cc1ccccc1)NC(=O)c1cnccn1)B(O)O [Bortezomib] (partner 0.002 µM) has a relative viability (NCI-H23; first compound 0.001 µM) of 1.07, a relative viability (NCI-H23; first compound 0.003162 µM) of 1.37 and a relative viability (NCI-H23; first compound 0.01 µM) of 1.4. The relative viability (NCI-H23; first compound 0.03162 µM) was 0.73, the relative viability (NCI-H23; first compound 0.1 µM) was 0.775 and the relative viability (HARA; first compound 0.001 µM) was 1.17. It also gave a relative viability (HARA; first compound 0.003162 µM) of 1.25, a relative viability (HARA; first compound 0.01 µM) of 1.11 and a relative viability (HARA; first compound 0.03162 µM) of 1.15. It also gave a relative viability (HARA; first compound 0.1 µM) of 0.859, a relative viability (NCI-H2009; first compound 0.001 µM) of 0.937 and a relative viability (NCI-H2009; first compound 0.003162 µM) of 1.14. For the same compound, the relative viability (NCI-H2009; first compound 0.01 µM) was 1.16, the relative viability (NCI-H2009; first compound 0.03162 µM) was 1.06 and the relative viability (NCI-H2009; first compound 0.1 µM) was 0.218. The relative viability (LC-2-ad; first compound 0.001 µM) was 0.914, the relative viability (LC-2-ad; first compound 0.003162 µM) was 1.17 and the relative viability (LC-2-ad; first compound 0.01 µM) was 0.983. The relative viability (LC-2-ad; first compound 0.03162 µM) was 0.992, the relative viability (LC-2-ad; first compound 0.1 µM) was 0.527 and the relative viability (NCI-H1651; first compound 0.001 µM) was 0.917. For the same compound, the relative viability (NCI-H1651; first compound 0.003162 µM) was 1.05, the relative viability (NCI-H1651; first compound 0.01 µM) was 1.07 and the relative viability (NCI-H1651; first compound 0.03162 µM) was 0.956. For the same compound, the relative viability (NCI-H1651; first compound 0.1 µM) was 0.653, the relative viability (NCI-H1650; first compound 0.001 µM) was 0.2 and the relative viability (NCI-H1650; first compound 0.003162 µM) was 0.195. The relative viability (NCI-H1650; first compound 0.01 µM) was 0.18, the relative viability (NCI-H1650; first compound 0.03162 µM) was 0.196 and the relative viability (NCI-H1650; first compound 0.1 µM) was 0.197. For the same compound, the relative viability (EPLC-272H; first compound 0.001 µM) was 1.06, the relative viability (EPLC-272H; first compound 0.003162 µM) was 1.21 and the relative viability (EPLC-272H; first compound 0.01 µM) was 0.863. It also gave a relative viability (EPLC-272H; first compound 0.03162 µM) of 0.72, a relative viability (EPLC-272H; first compound 0.1 µM) of 0.429 and a relative viability (NCI-H2085; first compound 0.001 µM) of 1.11. For the same compound, the relative viability (NCI-H2085; first compound 0.003162 µM) was 1.11, the relative viability (NCI-H2085; first compound 0.01 µM) was 1.27 and the relative viability (NCI-H2085; first compound 0.03162 µM) was 0.816. For the same compound, the relative viability (NCI-H2085; first compound 0.1 µM) was 0.725, the relative viability (NCI-H2228; first compound 0.001 µM) was 1.09 and the relative viability (NCI-H2228; first compound 0.003162 µM) was 1.23. The relative viability (NCI-H2228; first compound 0.01 µM) was 1.21, the relative viability (NCI-H2228; first compound 0.03162 µM) was 0.641 and the relative viability (NCI-H2228; first compound 0.1 µM) was 0.422. It also gave a relative viability (NCI-H1975; first compound 0.001 µM) of 0.32, a relative viability (NCI-H1975; first compound 0.003162 µM) of 0.315 and a relative viability (NCI-H1975; first compound 0.01 µM) of 0.268. For the same compound, the relative viability (NCI-H1975; first compound 0.03162 µM) was 0.279, the relative viability (NCI-H1975; first compound 0.1 µM) was 0.171 and the relative viability (NCI-H727; first compound 0.001 µM) was 0.848. The relative viability (NCI-H727; first compound 0.01 µM) was 0.976, the relative viability (NCI-H727; first compound 0.03162 µM) was 0.678 and the relative viability (NCI-H727; first compound 0.1 µM) was 0.484. For the same compound, the relative viability (LOU-NH91; first compound 0.001 µM) was 0.523, the relative viability (LOU-NH91; first compound 0.003162 µM) was 0.46 and the relative viability (LOU-NH91; first compound 0.01 µM) was 0.404. It also gave a relative viability (LOU-NH91; first compound 0.03162 µM) of 0.473, a relative viability (LOU-NH91; first compound 0.1 µM) of 0.524 and a relative viability (PC-3 [JPC-3]; first compound 0.001 µM) of 0.848. The relative viability (PC-3 [JPC-3]; first compound 0.003162 µM) was 0.88, the relative viability (PC-3 [JPC-3]; first compound 0.01 µM) was 0.975 and the relative viability (PC-3 [JPC-3]; first compound 0.03162 µM) was 0.707. It also gave a relative viability (PC-3 [JPC-3]; first compound 0.1 µM) of 0.46, a relative viability (UMC-11; first compound 0.001 µM) of 0.65 and a relative viability (UMC-11; first compound 0.003162 µM) of 0.658. It also gave a relative viability (UMC-11; first compound 0.01 µM) of 0.806, a relative viability (UMC-11; first compound 0.1 µM) of 0.333 and a relative viability (NCI-H441; first compound 0.001 µM) of 0.33. It also gave a relative viability (NCI-H441; first compound 0.003162 µM) of 0.735, a relative viability (NCI-H441; first compound 0.01 µM) of 0.492 and a relative viability (NCI-H441; first compound 0.1 µM) of 0.219. For the same compound, the relative viability (NCI-H2023; first compound 0.001 µM) was 1, the relative viability (NCI-H2023; first compound 0.003162 µM) was 0.691 and the relative viability (NCI-H2023; first compound 0.01 µM) was 1.16. The relative viability (NCI-H2023; first compound 0.03162 µM) was 0.925, the relative viability (NCI-H2023; first compound 0.1 µM) was 0.206 and the relative viability (NCI-H838; first compound 0.001 µM) was 0.867. For the same compound, the relative viability (NCI-H838; first compound 0.003162 µM) was 0.731, the relative viability (NCI-H838; first compound 0.01 µM) was 0.976 and the relative viability (NCI-H838; first compound 0.03162 µM) was 0.673. For the same compound, the relative viability (NCI-H838; first compound 0.1 µM) was 0.709, the relative viability (NCI-H650; first compound 0.001 µM) was 0.754 and the relative viability (NCI-H650; first compound 0.003162 µM) was 0.76. For the same compound, the relative viability (NCI-H650; first compound 0.01 µM) was 0.923, the relative viability (NCI-H650; first compound 0.03162 µM) was 0.794 and the relative viability (NCI-H650; first compound 0.1 µM) was 0.714. For the same compound, the relative viability (NCI-H2087; first compound 0.001 µM) was 0.693, the relative viability (NCI-H2087; first compound 0.003162 µM) was 1.03 and the relative viability (NCI-H2087; first compound 0.01 µM) was 0.762. The relative viability (NCI-H2087; first compound 0.03162 µM) was 0.68, the relative viability (NCI-H2087; first compound 0.1 µM) was 0.296 and the relative viability (SW 1573; first compound 0.001 µM) was 1.02. For the same compound, the relative viability (SW 1573; first compound 0.003162 µM) was 1.4, the relative viability (SW 1573; first compound 0.01 µM) was 1.54 and the relative viability (SW 1573; first compound 0.03162 µM) was 0.796. The relative viability (SW 1573; first compound 0.1 µM) was 1.09, the relative viability (H3255; first compound 0.001 µM) was 0.917 and the relative viability (H3255; first compound 0.003162 µM) was 0.656. The relative viability (H3255; first compound 0.01 µM) was 0.986, the relative viability (H3255; first compound 0.03162 µM) was 0.787 and the relative viability (H3255; first compound 0.1 µM) was 0.558.
